# Source: paper PMC9683047, “Design, synthesis and biological evaluation of 4-aminoquinoline derivatives as receptor-interacting protein kinase 2 (RIPK2) inhibitors” (Journal of Enzyme Inhibition and Medicinal Chemistry, 2022)
# Legend:
# DRAK1(h) = target: T1, DRAK1(h) (Homo sapiens, UniProt Q9UEE5); assay: Kinase selectivity panel: DRAK1; assay type: biochemical; settings: 1 µM
# T1 construct: purchased Eurofins (Millipore) KinaseProfiler Diversity Panel
# Method: (§1) To confirm the anti-inflammatory effect was caused by RIPK2 inhibition, compound 14 was subjected to kinase selectivity evaluation (Figure 4). Kinase selectivity profile of compound 14 as shown by the diversity kinase Panel screen against 70 kinases assayed at 1 µM. Among all tested 70 kinases, only five were inhibited over 90% at 1 µM including Fyn, Lyn, BTK, Abl and RIPK2. Three kinases including KDR, CDK9 and LOK were inhibited 50–90% at 1 µM.
# MST1(h) = target: T2, MST1(h) (Homo sapiens, UniProt Q13043); assay: Kinase selectivity panel: MST1; assay type: biochemical
# T2 construct: purchased Eurofins (Millipore) KinaseProfiler Diversity Panel
# T2 sequence (Q13043 whole entry): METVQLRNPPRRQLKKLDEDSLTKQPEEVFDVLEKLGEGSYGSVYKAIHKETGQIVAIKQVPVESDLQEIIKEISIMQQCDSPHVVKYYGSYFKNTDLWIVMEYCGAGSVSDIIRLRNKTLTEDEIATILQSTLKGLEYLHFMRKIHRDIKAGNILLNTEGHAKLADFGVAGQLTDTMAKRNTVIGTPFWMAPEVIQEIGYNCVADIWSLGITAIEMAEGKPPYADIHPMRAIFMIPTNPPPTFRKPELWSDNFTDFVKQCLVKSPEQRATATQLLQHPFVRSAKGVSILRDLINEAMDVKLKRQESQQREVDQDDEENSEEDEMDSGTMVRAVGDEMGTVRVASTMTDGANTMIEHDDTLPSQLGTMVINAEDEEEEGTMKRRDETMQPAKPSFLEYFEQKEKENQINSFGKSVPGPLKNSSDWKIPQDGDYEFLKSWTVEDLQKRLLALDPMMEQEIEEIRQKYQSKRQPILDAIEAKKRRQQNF
# Method: as §1
# Rsk1(h) = target: T3, Rsk1(h) (Homo sapiens, UniProt Q15418); assay: Kinase selectivity panel: Rsk1; assay type: biochemical; settings: 1 µM
# T3 construct: purchased Eurofins (Millipore) KinaseProfiler Diversity Panel
# T3 sequence (Q15418 whole entry): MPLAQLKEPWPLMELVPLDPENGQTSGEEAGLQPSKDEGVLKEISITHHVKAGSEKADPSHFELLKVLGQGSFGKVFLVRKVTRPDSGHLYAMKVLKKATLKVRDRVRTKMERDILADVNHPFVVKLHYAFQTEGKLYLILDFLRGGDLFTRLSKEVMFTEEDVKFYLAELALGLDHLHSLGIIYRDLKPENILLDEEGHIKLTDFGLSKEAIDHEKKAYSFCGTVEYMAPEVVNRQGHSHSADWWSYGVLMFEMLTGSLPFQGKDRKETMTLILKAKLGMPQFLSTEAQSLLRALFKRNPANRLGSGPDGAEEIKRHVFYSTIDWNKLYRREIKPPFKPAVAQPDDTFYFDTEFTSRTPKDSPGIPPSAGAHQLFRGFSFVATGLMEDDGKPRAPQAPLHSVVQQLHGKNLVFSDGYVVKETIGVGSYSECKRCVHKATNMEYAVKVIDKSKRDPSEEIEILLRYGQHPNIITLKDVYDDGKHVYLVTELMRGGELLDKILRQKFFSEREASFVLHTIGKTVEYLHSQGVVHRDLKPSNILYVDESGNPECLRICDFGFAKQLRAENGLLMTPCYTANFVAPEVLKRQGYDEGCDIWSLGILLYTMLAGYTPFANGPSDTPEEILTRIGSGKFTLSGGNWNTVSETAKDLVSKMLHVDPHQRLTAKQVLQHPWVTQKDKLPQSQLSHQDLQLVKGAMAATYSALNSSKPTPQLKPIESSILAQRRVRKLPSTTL
# Method: as §1
# PAK2(h) = target: T4, PAK2(h) (Homo sapiens, UniProt Q13177); assay: Kinase selectivity panel: PAK2; assay type: biochemical; settings: 1 µM
# T4 construct: purchased Eurofins (Millipore) KinaseProfiler Diversity Panel
# T4 sequence (Q13177 whole entry): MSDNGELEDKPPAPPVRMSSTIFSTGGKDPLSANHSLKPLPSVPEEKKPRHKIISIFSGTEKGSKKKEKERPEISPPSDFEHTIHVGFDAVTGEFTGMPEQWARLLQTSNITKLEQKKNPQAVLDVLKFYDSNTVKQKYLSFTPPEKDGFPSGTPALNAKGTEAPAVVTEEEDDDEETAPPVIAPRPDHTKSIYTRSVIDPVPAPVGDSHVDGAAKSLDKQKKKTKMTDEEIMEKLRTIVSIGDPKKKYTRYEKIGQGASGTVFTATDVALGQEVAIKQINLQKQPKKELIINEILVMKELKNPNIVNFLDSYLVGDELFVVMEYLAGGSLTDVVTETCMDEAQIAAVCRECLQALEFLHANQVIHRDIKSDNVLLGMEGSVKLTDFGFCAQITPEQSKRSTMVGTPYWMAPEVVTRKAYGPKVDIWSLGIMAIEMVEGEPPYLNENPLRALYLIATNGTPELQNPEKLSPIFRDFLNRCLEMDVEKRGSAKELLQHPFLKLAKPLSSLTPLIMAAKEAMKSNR
# Method: as §1
# [1] = test system: MDP-induced TNF-α secretion in Raw264.7; assay: TNF-α secretion in MDP-induced Raw264.7 (ELISA); assay type: cell-based, mouse; settings: Raw264.7, compounds 1 h then L18-MDP 20 µg/mL 24 h, series concentration
# Method: Raw 264.7 was cultured in DMEM containing 10% (w/v) foetal bovine serum (FBS). Cell were seeded at a density of 1 × 10^5 cells/well in a 48 well plate overnight, then cells were treated with different concentrations of compounds for1h, following by stimulated with L18-MDP (20 µg/mL, Invivogen) for 24 h. The Cell supernatants were harvested for enzyme-linked immunosorbent assay (ELISA).
# TNFα commercial ELISA kits (DAKEWE) were used to detect TNFα in cell culture supernatants according to the manufacturer’s instructions. The concentration of cytokines was determined using multiwell spectrophotometer (SpetraMAX PLUS, Molecular Devices).
# [2] = target: T5, PI3 Kinase (p110b/p85a)(h) (Homo sapiens, UniProt P42338); assay: Kinase selectivity panel: PI3 Kinase (p110b/p85a); assay type: biochemical
# T5 construct: purchased Eurofins (Millipore) KinaseProfiler Diversity Panel
# T5 sequence (P42338 whole entry): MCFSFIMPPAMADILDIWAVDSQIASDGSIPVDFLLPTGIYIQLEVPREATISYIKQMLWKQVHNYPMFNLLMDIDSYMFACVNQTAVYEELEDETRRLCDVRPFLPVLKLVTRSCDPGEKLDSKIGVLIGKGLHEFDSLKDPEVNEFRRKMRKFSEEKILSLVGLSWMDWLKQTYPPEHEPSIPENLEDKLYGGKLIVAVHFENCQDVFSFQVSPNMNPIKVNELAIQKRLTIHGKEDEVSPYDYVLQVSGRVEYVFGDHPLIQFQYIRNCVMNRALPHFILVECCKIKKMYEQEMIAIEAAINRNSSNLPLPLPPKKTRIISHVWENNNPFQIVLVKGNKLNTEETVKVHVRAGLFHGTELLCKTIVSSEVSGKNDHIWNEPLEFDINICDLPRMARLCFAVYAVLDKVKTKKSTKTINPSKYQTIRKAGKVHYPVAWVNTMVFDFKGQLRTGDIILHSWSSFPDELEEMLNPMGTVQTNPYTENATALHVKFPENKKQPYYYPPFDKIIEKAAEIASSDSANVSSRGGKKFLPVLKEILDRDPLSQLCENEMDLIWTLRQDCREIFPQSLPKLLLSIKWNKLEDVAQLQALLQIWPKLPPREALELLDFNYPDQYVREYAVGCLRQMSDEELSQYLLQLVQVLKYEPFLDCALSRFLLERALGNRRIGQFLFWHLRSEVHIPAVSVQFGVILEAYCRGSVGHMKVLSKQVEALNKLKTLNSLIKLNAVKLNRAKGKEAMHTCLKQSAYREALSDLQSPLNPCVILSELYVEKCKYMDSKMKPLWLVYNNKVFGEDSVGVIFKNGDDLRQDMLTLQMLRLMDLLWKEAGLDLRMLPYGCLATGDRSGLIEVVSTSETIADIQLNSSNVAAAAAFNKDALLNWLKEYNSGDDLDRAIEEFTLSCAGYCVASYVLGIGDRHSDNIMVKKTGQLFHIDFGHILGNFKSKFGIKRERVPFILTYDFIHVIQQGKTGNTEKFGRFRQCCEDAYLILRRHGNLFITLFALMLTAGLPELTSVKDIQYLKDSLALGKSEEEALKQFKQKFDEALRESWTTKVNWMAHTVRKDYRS
# T5 sequence (P27986 whole entry partner): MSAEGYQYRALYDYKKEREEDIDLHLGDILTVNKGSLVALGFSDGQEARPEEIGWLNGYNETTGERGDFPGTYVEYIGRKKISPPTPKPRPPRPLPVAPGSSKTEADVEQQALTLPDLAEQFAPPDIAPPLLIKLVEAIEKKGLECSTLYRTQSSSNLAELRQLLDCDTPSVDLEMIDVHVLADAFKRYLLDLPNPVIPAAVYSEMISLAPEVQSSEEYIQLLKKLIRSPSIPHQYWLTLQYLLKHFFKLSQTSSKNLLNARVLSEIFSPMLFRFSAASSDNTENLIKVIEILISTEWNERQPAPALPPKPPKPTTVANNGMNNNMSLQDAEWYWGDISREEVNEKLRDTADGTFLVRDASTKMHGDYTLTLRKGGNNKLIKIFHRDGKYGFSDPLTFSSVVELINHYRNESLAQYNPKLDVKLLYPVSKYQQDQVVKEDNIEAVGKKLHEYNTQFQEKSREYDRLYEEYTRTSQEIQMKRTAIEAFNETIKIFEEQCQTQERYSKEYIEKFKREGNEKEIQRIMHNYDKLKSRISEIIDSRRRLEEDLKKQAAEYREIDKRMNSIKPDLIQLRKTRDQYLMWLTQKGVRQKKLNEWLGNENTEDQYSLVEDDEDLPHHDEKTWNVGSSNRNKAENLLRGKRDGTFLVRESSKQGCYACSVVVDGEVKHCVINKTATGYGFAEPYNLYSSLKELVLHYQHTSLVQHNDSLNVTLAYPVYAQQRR
# Method: as §1
# Lyn(h) = target: T6, Lyn(h) (Homo sapiens, UniProt P07948); assay: Kinase selectivity panel: Lyn; assay type: biochemical
# T6 construct: purchased Eurofins (Millipore) KinaseProfiler Diversity Panel
# T6 sequence (P07948 whole entry): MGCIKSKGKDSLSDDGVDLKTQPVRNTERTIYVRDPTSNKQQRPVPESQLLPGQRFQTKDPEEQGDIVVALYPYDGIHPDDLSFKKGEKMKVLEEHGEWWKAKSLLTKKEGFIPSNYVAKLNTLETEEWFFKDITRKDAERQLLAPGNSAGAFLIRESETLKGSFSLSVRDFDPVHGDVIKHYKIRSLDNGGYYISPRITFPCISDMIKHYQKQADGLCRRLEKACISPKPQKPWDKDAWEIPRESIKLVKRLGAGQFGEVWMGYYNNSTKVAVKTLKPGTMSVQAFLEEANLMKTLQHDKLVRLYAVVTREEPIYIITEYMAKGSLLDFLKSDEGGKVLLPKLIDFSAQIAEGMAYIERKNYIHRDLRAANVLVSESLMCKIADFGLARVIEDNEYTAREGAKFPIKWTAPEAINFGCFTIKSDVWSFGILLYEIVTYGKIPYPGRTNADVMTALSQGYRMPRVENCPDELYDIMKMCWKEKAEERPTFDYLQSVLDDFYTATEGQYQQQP
# Method: as §1
# Mnk2(h) = target: T7, Mnk2(h) (Homo sapiens, UniProt Q9HBH9); assay: Kinase selectivity panel: Mnk2; assay type: biochemical
# T7 construct: purchased Eurofins (Millipore) KinaseProfiler Diversity Panel
# T7 sequence (Q9HBH9 whole entry): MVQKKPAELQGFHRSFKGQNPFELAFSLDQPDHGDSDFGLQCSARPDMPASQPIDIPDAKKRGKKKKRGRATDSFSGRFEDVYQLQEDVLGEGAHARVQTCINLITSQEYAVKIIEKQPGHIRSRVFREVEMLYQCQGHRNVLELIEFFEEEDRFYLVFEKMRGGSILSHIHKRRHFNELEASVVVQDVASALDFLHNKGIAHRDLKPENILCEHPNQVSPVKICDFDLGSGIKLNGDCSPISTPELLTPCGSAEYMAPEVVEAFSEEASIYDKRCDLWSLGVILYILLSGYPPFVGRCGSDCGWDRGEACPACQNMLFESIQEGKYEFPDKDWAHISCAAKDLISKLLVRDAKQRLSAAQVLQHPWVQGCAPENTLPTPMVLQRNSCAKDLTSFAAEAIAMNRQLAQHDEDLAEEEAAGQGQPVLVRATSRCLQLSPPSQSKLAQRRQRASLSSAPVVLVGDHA
# Method: as §1
# T1 sequence (Q9UEE5 whole entry): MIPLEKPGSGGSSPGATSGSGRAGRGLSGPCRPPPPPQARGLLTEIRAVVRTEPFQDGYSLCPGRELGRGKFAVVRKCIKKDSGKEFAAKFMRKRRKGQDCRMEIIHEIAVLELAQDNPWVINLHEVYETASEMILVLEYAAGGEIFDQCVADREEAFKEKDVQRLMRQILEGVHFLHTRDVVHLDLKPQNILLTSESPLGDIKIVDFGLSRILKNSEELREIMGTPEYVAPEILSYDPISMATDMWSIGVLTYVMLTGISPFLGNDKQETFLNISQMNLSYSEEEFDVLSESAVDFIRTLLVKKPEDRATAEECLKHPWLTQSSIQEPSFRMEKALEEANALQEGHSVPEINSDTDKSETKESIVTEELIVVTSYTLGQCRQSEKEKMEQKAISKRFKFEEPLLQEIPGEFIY
smiles,measurement,setting,value
"c1cc(-c2ccc3nccc(Nc4ccc5scnc5c4)c3c2)ccn1 [Compound 14, N-(6-(pyridin-4-yl)quinolin-4-yl)benzo[d]thiazol-5-amine]",Remaining DRAK1 activity (% of control),DRAK1(h),110
same,MST1 kinase activity remaining with compound 14 at 1 µM (% of control),MST1(h),105
same,Rsk1 kinase activity remaining (% of control),Rsk1(h),98
same,percent remaining kinase activity,PAK2(h),100
same,inhibition of MDP-induced TNF-α secretion,[1],strong inhibitory activity on MDP-induced TNF-α secretion with a dose-dependent manner
same,remaining kinase activity (% of control) with compound 14 at 1 µM,[2],88
same,Remaining Lyn kinase activity (% of control),Lyn(h); 1 µM,3
same,inhibition at 1 µM,Lyn(h); at 1 µM,> 90%
same,Mnk2 remaining activity (% of control) with compound 14 at 1 µM,Mnk2(h),68
